Columns and labels:
GLP-1R [1] = biological target: T1, GLP-1R (Homo sapiens, UniProt P43220, R299A); experiment: Whole-cell binding assay, competition with 125I-GLP-1(7-36)NH2; conditions: GLP-1R R299A; CHO-K1
T1 construct: Flag; expressed in transfected cells
Description: (§1) Human embryonic kidney 293 cells containing SV40 large T-antigen (HEK293T) were cultured in DMEM (Gibco) supplemented with 10% (v/v) fetal bovine serum (FBS, Gibco), 1 mM sodium pyruvate (Gibco) and 100 units/mL penicillin and 100 μg/mL streptomycin at 37 °C in 5% CO2. Chinese hamster ovary (CHO-K1) cells were cultured in F-12 (Gibco) containing 10% FBS, 100 units/mL penicillin and 100 μg/mL streptomycin at 37 °C in 5% CO2. For cAMP and receptor expression assays, HEK293T cells were seeded into 6-well cell culture plates at a density of 7 × 10^5 cells per well. After overnight incubation, cells were transfected with GIPR, GLP-1R or GCGR construct using Lipofectamine 2000 or Lipofectamine 3000 transfection reagent (Invitrogen). For whole-cell binding assay, CHO-K1 cells were seeded into 96-well fibronectin-treated cell culture plates at a density of 3 × 10^4 cells per well. […] Following 24 h culturing, the transfected cells were ready for use.
(§2) For GLP-1R and GCGR, CHO-K1 cells (30,000 cells/well) were seeded into Isoplate-96 plates and incubated for 24 h at 37 °C in 5% CO2. […] After addition of scintillation cocktail (PerkinElmer), radioactivity (CPM) was counted on a MicroBeta^2 microplate counter (PerkinElmer). Data were normalized to the WT response and analyzed using three-parameter logistic equation.

GLP-1R [2] = biological target: T2, GLP-1R (Homo sapiens, UniProt P43220, Y152A); experiment: as above; conditions: GLP-1R Y152A; CHO-K1
T2 construct: Flag; expressed in transfected cells
T2 sequence (P43220 24-463 Y152A): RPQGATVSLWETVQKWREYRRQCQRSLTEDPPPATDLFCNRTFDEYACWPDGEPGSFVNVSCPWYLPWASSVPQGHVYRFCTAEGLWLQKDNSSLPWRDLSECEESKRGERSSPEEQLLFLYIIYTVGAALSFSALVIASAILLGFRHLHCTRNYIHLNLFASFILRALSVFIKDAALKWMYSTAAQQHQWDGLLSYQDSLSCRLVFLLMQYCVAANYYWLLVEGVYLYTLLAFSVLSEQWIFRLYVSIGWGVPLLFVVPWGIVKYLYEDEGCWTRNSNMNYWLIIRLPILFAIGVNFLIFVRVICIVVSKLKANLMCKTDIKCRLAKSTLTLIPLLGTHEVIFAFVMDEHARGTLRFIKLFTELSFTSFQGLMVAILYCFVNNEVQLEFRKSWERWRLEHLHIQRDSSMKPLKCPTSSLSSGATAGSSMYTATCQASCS
Description: as §1, §2

[3] = clinical trial outcome; Drugs@FDA, ChemBL, ClinicalTrials.gov; cited from earlier work
GCGR [4] = biological target: GCGR (Homo sapiens, UniProt P47871, D195A); experiment: cAMP accumulation assay, GCGR WT, mutant or modified constructs; type: cell-based; set-up: V5 (C); 6×His (C); expressed in transfected cells; host or cells: HEK293T; conditions: HEK-293T, GCGR D195A; HEK293T
Chain of GCGR (Homo sapiens, UniProt P47871, D195A) (P47871 26-477 D195A): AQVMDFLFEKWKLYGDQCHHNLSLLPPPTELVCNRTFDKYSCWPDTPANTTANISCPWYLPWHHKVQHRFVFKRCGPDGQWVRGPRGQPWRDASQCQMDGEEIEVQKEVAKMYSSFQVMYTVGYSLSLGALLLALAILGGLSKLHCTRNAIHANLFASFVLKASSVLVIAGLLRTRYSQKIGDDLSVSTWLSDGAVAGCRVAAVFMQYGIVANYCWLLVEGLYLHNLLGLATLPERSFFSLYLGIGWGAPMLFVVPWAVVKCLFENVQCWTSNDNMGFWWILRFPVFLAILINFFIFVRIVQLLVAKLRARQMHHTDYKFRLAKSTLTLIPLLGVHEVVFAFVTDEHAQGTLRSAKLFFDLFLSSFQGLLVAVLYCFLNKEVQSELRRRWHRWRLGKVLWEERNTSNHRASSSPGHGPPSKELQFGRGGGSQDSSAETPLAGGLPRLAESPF
Description: (§3) Human embryonic kidney 293 cells containing SV40 large T-antigen (HEK293T) were cultured in DMEM (Gibco) supplemented with 10% (v/v) fetal bovine serum (FBS, Gibco), 1 mM sodium pyruvate (Gibco) and 100 units/mL penicillin and 100 μg/mL streptomycin at 37 °C in 5% CO2. Chinese hamster ovary (CHO-K1) cells were cultured in F-12 (Gibco) containing 10% FBS, 100 units/mL penicillin and 100 μg/mL streptomycin at 37 °C in 5% CO2. For cAMP and receptor expression assays, HEK293T cells were seeded into 6-well cell culture plates at a density of 7 × 10^5 cells per well. After overnight incubation, cells were transfected with GIPR, GLP-1R or GCGR construct using Lipofectamine 2000 or Lipofectamine 3000 transfection reagent (Invitrogen). For whole-cell binding assay, CHO-K1 cells were seeded into 96-well fibronectin-treated cell culture plates at a density of 3 × 10^4 cells per well. After overnight incubation, cells were transfected with GIPR, GLP-1R or GCGR construct using Lipofectamine 2000 transfection reagent (Invitrogen). Following 24 h culturing, the transfected cells were ready for use. […]
(§4) For GIPR, GLP-1R and GCGR, multi-targeting agonist stimulated cAMP accumulation was measured by a LANCE Ultra cAMP kit (PerkinElmer). After 24 h culture, the transfected cells were seeded into 384-well microtiter plates at a density of 3,000 cells per well in HBSS supplemented with 5 mM HEPES, 0.1% (w/v) BSA or 0.1% (w/v) casein and 0.5 mM 3-isobutyl-1-methylxanthine. The cells were stimulated with different concentrations of peptide agonists for 40 min at RT. Eu-cAMP tracer and ULight^TM-anti-cAMP were then diluted by cAMP detection buffer and added to the plates separately to terminate the reaction. Plates were incubated at RT for 1 h and the fluorescence intensity measured at 620 nm and […] by an EnVision multilabel plate reader (PerkinElmer).

GCGR [5] = biological target: GCGR (Homo sapiens, UniProt P47871, Y202A); experiment: as above; type: cell-based; set-up: V5 (C); 6×His (C); expressed in transfected cells; host or cells: HEK293T; conditions: HEK-293T, GCGR Y202A; HEK293T
Chain of GCGR (Homo sapiens, UniProt P47871, Y202A) (P47871 26-477 Y202A): as the sequence (P47871 26-477 D195A) above, with A170D, Y177A counted along it
Description: as §3, §4

GCGR [6] = biological target: GCGR (Homo sapiens, UniProt P47871, Q131A); experiment: as above; type: cell-based; set-up: V5 (C); 6×His (C); expressed in transfected cells; host or cells: HEK293T; conditions: GCGR Q131A, HEK293T
Chain of GCGR (Homo sapiens, UniProt P47871, Q131A) (P47871 26-477 Q131A): as the sequence (P47871 26-477 D195A) above, with Q106A, A170D counted along it
Description: as §3, §4

GCGR [7] = biological target: GCGR (Homo sapiens, UniProt P47871, Q293A); experiment: as above; type: cell-based; set-up: V5 (C); 6×His (C); expressed in transfected cells; host or cells: HEK293T; conditions: GCGR Q293A, HEK293T
Chain of GCGR (Homo sapiens, UniProt P47871, Q293A) (P47871 26-477 Q293A): as the sequence (P47871 26-477 D195A) above, with A170D, Q268A counted along it
Description: as §3, §4

GCGR [8] = biological target: GCGR (Homo sapiens, UniProt P47871, R199A); experiment: as above; type: cell-based; set-up: V5 (C); 6×His (C); expressed in transfected cells; host or cells: HEK293T; conditions: GCGR R199A, HEK293T
Chain of GCGR (Homo sapiens, UniProt P47871, R199A) (P47871 26-477 R199A): as the sequence (P47871 26-477 D195A) above, with A170D, R174A counted along it
Description: as §3, §4

GCGR [9] = biological target: GCGR (Homo sapiens, UniProt P47871, W87A); experiment: as above; type: cell-based; set-up: V5 (C); 6×His (C); expressed in transfected cells; host or cells: HEK293T; conditions: HEK-293T, GCGR W87A; HEK293T
Chain of GCGR (Homo sapiens, UniProt P47871, W87A) (P47871 26-477 W87A): as the sequence (P47871 26-477 D195A) above, with W62A, A170D counted along it
Description: as §3, §4

[10] = read-out: cAMP pEC50 (converted)

T1 sequence (P43220 24-463 R299A): as the sequence (P43220 24-463 Y152A) above, with A129Y, R276A counted along it

SMILES	binding Span (GLP-1R [1]) [% WT]	binding Span (GLP-1R [2]) [% WT]	Body weight [3]	Fasting plasma glucose [3]	Emax (GCGR [4]) [%]	Emax (GCGR [5]) [%]	EC50 (GCGR [6]; [10]) [nM]	Emax (GCGR [6]; HEK-293T) [%]	EC50 (GCGR [7]; [10]) [nM]	Emax (GCGR [7]; HEK-293T) [%]	EC50 (GCGR [8]; [10]) [nM]	Emax (GCGR [8]; HEK-293T) [%]	Emax (GCGR [9]) [%]
CC[C@H](C)[C@H](NC(=O)[C@H](CC(C)C)NC(=O)[C@H](Cc1c[nH]c2ccccc12)NC(=O)[C@H](CCC(N)=O)NC(=O)[C@@H](NC(=O)[C@H](Cc1ccccc1)NC(=O)[C@H](C)NC(=O)[C@H](CCCCNC(=O)COCCOCCNC(=O)COCCOCCNC(=O)CC[C@H](NC(=O)CCCCCCCCCCCCCCCCCCC(=O)O)C(=O)O)NC(=O)[C@H](CCC(N)=O)NC(=O)[C@H](C)NC(=O)[C@@H](NC(=O)[C@H](CCCCN)NC(=O)[C@H](CC(=O)O)NC(=O)[C@H](CC(C)C)NC(=O)C(C)(C)NC(=O)[C@@H](NC(=O)[C@H](CO)NC(=O)[C@H](Cc1ccc(O)cc1)NC(=O)[C@H](CC(=O)O)NC(=O)[C@H](CO)NC(=O)[C@@H](NC(=O)[C@H](Cc1ccccc1)NC(=O)[C@@H](NC(=O)CNC(=O)[C@H](CCC(=O)O)NC(=O)C(C)(C)NC(=O)[C@@H](N)Cc1ccc(O)cc1)[C@@H](C)O)[C@@H](C)O)[C@@H](C)CC)[C@@H](C)CC)C(C)C)C(=O)N[C@@H](C)C(=O)NCC(=O)NCC(=O)N1CCC[C@H]1C(=O)N[C@@H](CO)C(=O)N[C@@H](CO)C(=O)NCC(=O)N[C@@H](C)C(=O)N1CCC[C@H]1C(=O)N1CCC[C@H]1C(=O)N1CCC[C@H]1C(=O)N[C@@H](CO)C(N)=O [Tirzepatide]	8.59 ± 1.61	11.22 ± 2.82	-5.30 ~ -5.70 kg or %	-60.70 ~ -74.20 mg/dL	–	–	–	–	–	–	–	–	–
CCCCCCCCCCCCCCCC(=O)N[C@@H](CCC(=O)NCCCC[C@H](NC(=O)[C@H](CC(=O)O)NC(=O)[C@H](CO)NC(=O)[C@@H](NC(=O)[C@H](Cc1ccccc1)NC(=O)[C@@H](NC(=O)CNC(=O)[C@H](CCC(N)=O)NC(=O)C(C)(C)NC(=O)[C@@H](N)Cc1c[nH]cn1)[C@@H](C)O)[C@@H](C)O)C(=O)N[C@@H](CO)C(=O)N[C@@H](CCCCN)C(=O)N[C@@H](Cc1ccc(O)cc1)C(=O)N[C@@H](CC(C)C)C(=O)N[C@@H](CC(=O)O)C(=O)N[C@@H](CCC(=O)O)C(=O)N[C@@H](CCCNC(=N)N)C(=O)N[C@@H](C)C(=O)N[C@@H](C)C(=O)N[C@@H](CCC(N)=O)C(=O)N[C@@H](CC(=O)O)C(=O)N[C@@H](Cc1ccccc1)C(=O)N[C@H](C(=O)N[C@@H](CCC(N)=O)C(=O)N[C@@H](Cc1c[nH]c2ccccc12)C(=O)N[C@@H](CC(C)C)C(=O)N[C@@H](CC(C)C)C(=O)N[C@@H](CC(=O)O)C(=O)NCC(=O)NCC(=O)N1CCC[C@H]1C(=O)N[C@@H](CO)C(=O)N[C@@H](CO)C(=O)NCC(=O)N[C@@H](C)C(=O)N1CCC[C@H]1C(=O)N1CCC[C@H]1C(=O)N1CCC[C@H]1C(=O)N[C@@H](CO)C(N)=O)C(C)C)C(=O)O [Peptide 20]	–	–	–	–	102 ± 2.1	103 ± 2.48	0.0282	101 ± 1.59	0.00832	99.5 ± 1.63	0.0129	99.7 ± 1.47	98.1 ± 1.54

Reference: publication PMC8881610 (Nature Communications, 2022)
